Reference: paper PMC7733455, “A novel multistage antiplasmodial inhibitor targeting Plasmodium falciparum histone deacetylase 1” (Cell Discovery, 2020)
Read-outs that look alike come from different tables or passages of the source.

Experiments:
[1] = Liver microsome metabolism assay, human; format: in vitro ADME
Description: Liver microsomes (0.5 mg/mL) were purchased from Corning. Ketanserin was selected as a positive control. The tested compounds were first dissolved in DMSO to a concentration of 10 mM and then diluted to 0.5 mM with acetonitrile. Liver microsome buffer was used to dilute the compounds to a working concentration of 1.5 µM, 30 µL of which was mixed with 15 µL of 6 mM NADPH at 37 °C. At 0, 5, 15, 30, and 45 min after incubation, 135 µL of acetonitrile was added to quench the reaction. The mixture was shaken on a vortex mixer (IKA, MTS 2/4) for 10 min at 600 rpm/min and then centrifuged at 5594× g for 15 min (Thermo Multifuge×3R). The supernatant was diluted 1:1 into distilled water, and analyzed by LC-MS/MS.

[2] = tested on: P. yoelii; test: In vivo blood-stage inhibition assay; set-up: species or system Plasmodium yoelii in BALB/c mice
Description: Experiment 1: Five female BALB/c mice (6 weeks, 18 g) from each experimental group were infected with 1 × 10^5 rodent malaria parasite P. yoelii via intraperitoneal (i.p) injection. After 24 h, the mice were treated with 30, 60, or 90 mg/kg/day JX21108 via i.p injection and 20 mg/kg/day piperaquine phosphate (PPQ) as a positive control for 5 days. DMSO (5%) was used as a blank control.
Experiment 2: To analyze the differences in drug potency between racemic and enantiopure forms of JX21108, five female BALB/c mice (6 weeks, 18 g) per group were treated with 60 mg/kg/day (+)-JX21108, (−)-JX21108, or JX21108 as described above. Blood smears were made daily from the blood of veins and stained by Giemsa. Parasitemia was counted from at least 5000 RBCs by microscopy. The bodyweight of the mice and the number of deaths were recorded daily. All the graphs were generated by GraphPad Prism. All experimental procedures followed the National Institutes of Health Guide for the Care and Use of Laboratory Animals, as well as the guidelines of the Animal Welfare and Committee of Institut Pasteur of Shanghai, Chinese Academy of Science, IACUC issue No. A2018009.

[3] = tested on: human HDACs; test: Human HDAC inhibition assay, summary; format: biochemical
Description: (§1) SAHA and suramin were used as positive controls. The tested compounds were dissolved into 20 mM stock in 100% DMSO. […] Ten microliters of trypsin and Ac-peptide substrate/Tris buffer solution were added to start the reaction, followed by a 1-h incubation at room temperature for HDACs 1–3 and 6. Ten microliters of Ac-peptide substrate/Tris buffer solution was added to start the reaction, followed by a 4-h incubation at room temperature and a further 2-h incubation with trypsin solution for HDAC8 and Sirt 2. […] This experiment was performed only once.

[4] = Pharmacokinetic assay in mice; format: in vivo, BALB/c mice; conditions: 5 mg/kg i.p.
Description: Five female BALB/c mice (6–8 weeks, 18–19 g) per group were purchased from JH Laboratory Animal Co., Ltd. All mice were raised at controlled temperature and humidity and had free access to food and water. Compounds were dissolved in 5% DMSO and diluted with 20% aqueous 2-hydroxypropyl-β-cyclodextrin solution to a stock concentration of 0.5 mg/mL. Each mouse was i.p. injected with the compound solution at a dose of 5 mg/kg. Blood samples collected by anticoagulant (K2EDTA)-containing tubes at 0.25, 0.5, 1, 2, 4, 8, and 24 h after injection were centrifuged at 2000× g at 4 °C for 5 min to obtain plasma. LC-MS/MS analysis of samples was carried out by an ACQUITY UPLC HSS T3 1.8-μm column. The mobile phase was a mixture of phase A (0.1% formic acid in water) and phase B (0.1% formic acid in acetonitrile), which ran in gradient mode at a flow rate of 0.6 mL/min at 60 °C. Mass spectra were obtained on an API6500 triple quadrupole equipped with an ESI source. Propranolol was used as an internal standard. The plasma concentrations of the compounds were analyzed, and the pharmacokinetic parameters were calculated via WinNonlin.

[5] = molecular target: T1, hHDAC8 (Homo sapiens, UniProt Q9BY41); test: Human HDAC inhibition assay, hHDAC8; format: biochemical; conditions: performed only once; read-out: Inhibitory Activity IC50, hHDAC8
T1 construct: purchased BPS Bioscience 50008
Description: as §1

[6] = tested on: P. falciparum clinical isolates 6218 and 6320; test: Ring-stage survival assay (RSA), isolates 6218 and 6320; format: cell-based, Plasmodium falciparum; conditions: 700 nM, isolates 6218 and 6320
Description: An RSA was performed as described previously[65] to evaluate the activity of JX21108 against the artemisinin- and piperaquine-resistant P. falciparum clinical isolates 6218 and 6320[43]. Briefly, parasites were highly synchronized at 0–3 hpi by a 60%/40%-Percoll gradient[66] followed by 5% D-sorbitol[67] treatment after 3 h. The parasite suspension (0.5%–1% parasitemia, 2% hematocrit) was incubated with compounds at 700 nM in a total volume of 2 mL in a 48-well plate for 6 h. After that, the culture mixture was washed three times with 15 mL of CM before another 66 h of cultivation with CM. A Giemsa-stained blood smear was made after cultivation. Parasitemia was counted from at least 10,000 RBCs by microscopy. The survival rate was calculated as the percentage of that in DMSO control. DHA at a concentration of 700 nM served as a positive control.

[7] = tested on: drug-sensitive and multidrug-resistant strains of P. falciparum; test: 3-day SYBR Green I GIA, summary over several strains; format: cell-based; conditions: Plasmodium falciparum
Description: A 3-day SYBR Green I inhibition EC50 assay was performed as described previously. Briefly, highly synchronized ring-stage parasites by 5% sorbitol (1% parasitemia and 2% hematocrit) were incubated in a 96-well plate with compounds in a total volume of 200 μL. […] The parasites were cultured for 72 h before SYBR Green I staining as described above. The EC50 was calculated by GraphPad Prism. DHA was used as a positive control, and the final concentration of DMSO was 1%.

[8] = tested on: P. falciparum NF54 stage IV gametocytes; test: In vitro gametocyte inhibition assay, stage IV; format: cell-based, Plasmodium falciparum; conditions: NF54 luciferase line, 48 h exposure
Description: To test the activities of JX21108 against different gametocyte stages, the P. falciparum producer NF54^p230p-luc was utilized, as described previously. […] Luciferase intensity based on luciferase expression was detected as described above. The EC50 was calculated by GraphPad Prism. DMSO (1%) was used as a negative control.

[9] = 30 mg/kg and 60 mg/kg treatment groups, i.p., 5 days
[10] = female, BALB/c, mouse, plasma, ip

T1 sequence (Q9BY41 whole entry): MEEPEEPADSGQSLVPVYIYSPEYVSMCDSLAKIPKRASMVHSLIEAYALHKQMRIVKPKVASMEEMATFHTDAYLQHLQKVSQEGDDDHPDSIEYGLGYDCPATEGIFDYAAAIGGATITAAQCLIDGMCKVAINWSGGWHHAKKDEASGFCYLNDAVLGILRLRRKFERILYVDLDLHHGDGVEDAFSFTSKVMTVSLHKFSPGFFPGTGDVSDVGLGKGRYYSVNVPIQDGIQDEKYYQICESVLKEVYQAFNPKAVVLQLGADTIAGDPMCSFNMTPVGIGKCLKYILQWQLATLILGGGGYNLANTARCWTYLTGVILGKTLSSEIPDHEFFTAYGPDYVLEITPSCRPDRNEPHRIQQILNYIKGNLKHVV

In the case of `Cl.Cn1cc(CN2CCC3(CCN(c4ncc(C(=O)NO)cn4)C3)C2)c2cc(C#N)ccc21` (stereo not drawn) [JX21108], the “CL in liver microsomes” value [1] is reported as 3.34 mL/min/kg, the half-life at 1 µM ([1]; human liver microsomes, read-out: T1/2 in liver microsomes) is reported as 521 min and the “day on which parasites were completely cleaned up” value [2, 9] is reported as 17 days. For the same molecule, the “day till which parasites were detected” value [2, 9] was 8 days, the relapse of malaria ([2]; 90 mg/kg treatment group, i.p., 5-day treatment) was “no relapse of malaria was observed” and the “survival of infected mice” value ([2]; JX21108-treated groups 30–90 mg/kg) was “all the mice survived”. For the same molecule, the “in vivo antiplasmodial activity in P. yoelii-infected mice” value ([2]; all doses tested (30–90 mg/kg), i.p., 5 days) was “strong in vivo antiplasmodial activity”, the “lower inhibitory activity on human HDACs than quisinostat” value [3] was “approximately 4 fold” and the V/F [4] was 15.4 L/kg. The AUC(0-inf) [4, 10] was 434 ng·h/mL, the AUC(0-t) [4, 10] was 432 ng·h/mL and the half-life [4, 10] was 55.6 min. The CL/F ([4]; female, BALB/c, mouse, plasma, ip, read-out: CL/F (converted)) was 192 mL/min/kg, the Cmax ([4]; female, BALB/c, mouse, plasma, ip, read-out: Cmax) was 511 ng/mL and the Tmax ([4]; female, BALB/c, mouse, plasma, ip, read-out: Tmax) was 15 min. The IC50 [5] was 62 nM, the “RSA effect on ring-stage parasites” value [6] was “greatly inhibited parasite growth at ring stage of 6218 and 6320” and the EC50 ([7]; three strains tested, read-out: EC50 values on strains GB4, C2A and CP286) was 2 to 8 nM. It also gave an EC50 ([7]; variety of geographically representative strains, read-out: EC50 against drug-sensitive and multidrug-resistant strains of P. falciparum) of 2 to 7 nM, an EC50 [8] of 5.9 ± 1.97 nM and an EC50 ([8]; Plasmodium falciparum, NF54, 48 h) of 5.85 ± 1.97 nM.
